Measured values: patent publication US20140005163A1 (NOVARTIS AG, priority 2010, published 2014)

What was measured:
[1] = test system: S6 Ribosomal Protein phosphorylation Ser235/236 in TSC1 null mouse embryo fibroblast (MEF) cells; assay: Reverse protein array assay, S6 Ribosomal Protein phosphorylation Ser235/236 in TSC1 null MEF cells; format: cell-based; conditions: 1 h, pS6 ribosomal protein Ser235/236, 60 minutes incubation, read-out: p-S6 IC50
In short: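 TSC1−/− MEFs, seeded and held ≥20 h at 37 °C/5% CO2, were exposed to 8-step serial compound dilutions (0.02% DMSO final; DMSO vehicle control) for 60 min at 37 °C. Cells were then lysed on ice for 10 min and lysates spotted onto reverse protein array chips.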

[2] = test system: PKB Ser473 phosphorylation in Rat1-myr-HA-p110 beta cells; assay: Reverse protein array assay, PKB Ser473 phosphorylation in Rat1-myr-p110 beta cells; format: cell-based; conditions: 0.5 h, pAkt Ser473, 30 minutes incubation, read-out: p-PKB IC50
In short: (§1)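 Cells: Rat1-myr-HA-p110 alpha/beta/delta, seeded ≥20 h. Lysis on ice 10 min; reverse-phase protein array, 4 lysate dilutions; fluorescence read, relative intensity.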

PI3K beta = target: T1, PI3K beta (Homo sapiens, UniProt P42338); assay: PI3K beta kinase assay (Kinase-Glo luminescence); format: biochemical
T1 construct: for the full-length p110-b subunit are generated and fused by overlapping PCR; p85(iSH2) fusion partner (see partner chain) (N); His tag (C); made in house; host or cells: baculovirus; Tn5 (Trichoplusia ni) or TiniPro insect cells
T1 sequence (P42338 with tags, fused parts or gaps limits assumed): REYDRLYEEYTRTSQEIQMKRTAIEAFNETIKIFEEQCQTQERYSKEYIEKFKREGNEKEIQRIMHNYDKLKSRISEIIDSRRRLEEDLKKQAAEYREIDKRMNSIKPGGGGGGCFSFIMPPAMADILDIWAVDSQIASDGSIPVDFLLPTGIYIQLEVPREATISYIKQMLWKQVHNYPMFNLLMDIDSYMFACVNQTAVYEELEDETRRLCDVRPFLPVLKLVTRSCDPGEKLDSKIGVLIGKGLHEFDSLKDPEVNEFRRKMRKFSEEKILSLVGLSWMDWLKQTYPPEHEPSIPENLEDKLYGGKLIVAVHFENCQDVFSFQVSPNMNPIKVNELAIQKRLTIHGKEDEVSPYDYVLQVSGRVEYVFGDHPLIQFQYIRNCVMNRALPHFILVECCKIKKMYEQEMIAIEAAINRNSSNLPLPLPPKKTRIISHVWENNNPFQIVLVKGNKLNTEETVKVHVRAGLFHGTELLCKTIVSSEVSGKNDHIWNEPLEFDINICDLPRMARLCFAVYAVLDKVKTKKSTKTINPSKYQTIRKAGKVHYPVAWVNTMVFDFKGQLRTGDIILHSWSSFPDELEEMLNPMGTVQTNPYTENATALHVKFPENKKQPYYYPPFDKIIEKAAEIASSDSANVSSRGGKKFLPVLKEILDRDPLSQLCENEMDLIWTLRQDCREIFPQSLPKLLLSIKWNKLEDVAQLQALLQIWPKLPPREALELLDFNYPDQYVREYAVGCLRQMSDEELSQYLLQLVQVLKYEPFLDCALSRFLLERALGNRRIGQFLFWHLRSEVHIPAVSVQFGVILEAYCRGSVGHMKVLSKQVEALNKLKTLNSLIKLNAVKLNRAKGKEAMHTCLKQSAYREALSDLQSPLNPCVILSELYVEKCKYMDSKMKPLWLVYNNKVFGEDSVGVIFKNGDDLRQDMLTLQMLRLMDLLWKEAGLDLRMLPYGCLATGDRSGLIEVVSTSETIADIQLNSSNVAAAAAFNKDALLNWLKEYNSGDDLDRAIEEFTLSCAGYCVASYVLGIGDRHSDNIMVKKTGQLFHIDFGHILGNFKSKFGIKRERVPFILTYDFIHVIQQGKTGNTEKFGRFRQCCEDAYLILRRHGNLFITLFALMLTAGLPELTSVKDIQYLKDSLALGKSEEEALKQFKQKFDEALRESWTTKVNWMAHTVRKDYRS
In short: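 Full-length p110β with a Gly-linked p85 iSH2 and a C-terminal His tag (BV949, 25 nM) was incubated with 10 μg/mL phosphatidylinositol and 1 μM ATP in 10 mM Tris pH 7.5, 3 mM MgCl2, 50 mM NaCl, 0.05% CHAPS, 1 mM DTT for 60 min at room temperature. Residual ATP was read by Kinase-Glo luminescence.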

[3] = test system: PKB Ser473 phosphorylation in Rat1-myr-HA-p110 alpha cells; assay: Reverse protein array assay, PKB Ser473 phosphorylation in Rat1-myr-p110 alpha cells; format: cell-based; conditions: 0.5 h, pAkt Ser473, 30 minutes compound incubation, read-out: p-PKB IC50
In short: as §1

Row | SMILES | IC50 [2] | IC50 (PI3K beta) | IC50 [3] | IC50 [1]
1 | CC(C)Oc1cncc(-c2ccc3ncc4c(c3c2)n(-c2cn(C)nc2Cl)c(=O)n4C)c1 [Example 58.2, 1-(3-Chloro-1-methyl-1H-pyrazol-4-yl)-8-(5-isopropoxy-pyridin-3-yl)-3-methyl-1,3-dihydro-imidazo[4,5-c]quinolin-2-one] | 14 nM | 5 nM | 9 nM | 4 nM
2 | CNc1ncc(-c2ccc3ncc4c(c3c2)n(-c2cn(C)nc2Cl)c(=O)n4C)cc1C [Example 119, 1-(3-Chloro-1-methyl-1H-pyrazol-4-yl)-3-methyl-8-(5-methyl-6-methylamino-pyridin-3-yl)-1,3-dihydro-imidazo[4,5-c]quinolin-2-one] | 10 nM | 20 nM | 6 nM | 1 nM
3 | Cc1nn(C)cc1-n1c(=O)n(C)c2cnc3ccc(-c4cnc(N)c(C(F)(F)F)c4)cc3c21 [Example 25.1, 8-(6-Amino-5-trifluoromethyl-pyridin-3-yl)-1-(1,3-dimethyl-1H-pyrazol-4-yl)-3-methyl-1,3-dihydro-imidazo[4,5-c]quinolin-2-one] | 6 nM | 19 nM | 5 nM | 1 nM
4 | CCNc1ncc(-c2ccc3ncc4c(c3c2)n(-c2cn(C)nc2C)c(=O)n4C)cc1C(F)(F)F [Example 145.2, 1-(1,3-Dimethyl-1H-pyrazol-4-yl)-8-(6-ethylamino-5-trifluoromethyl-pyridin-3-yl)-3-methyl-1,3-dihydro-imidazo[4,5-c]quinolin-2-one] | 13 nM | 50 nM | 9 nM | 0.94 nM
5 | COc1ccc(-c2ccc3ncc4c(c3c2)n(-c2cn(C)nc2C)c(=S)n4C)cc1OC [Example 128.2, 8-(3,4-Dimethoxy-phenyl)-1-(1,3-dimethyl-1H-pyrazol-4-yl)-3-methyl-1,3-dihydro-imidazo[4,5-c]quinoline-2-thione] | 6 nM | 17 nM | < 5 nM | 1 nM
6 | Cc1cc(-n2c(=O)n(C)c3cnc4ccc(-c5cnc(N)c(C(F)(F)F)c5)cc4c32)n(C)n1 [Example 25.6, 8-(6-Amino-5-trifluoromethyl-pyridin-3-yl)-1-(2,5-dimethyl-2H-pyrazol-3-yl)-3-methyl-1,3-dihydro-imidazo[4,5-c]quinolin-2-one] | 15 nM | 133 nM | 8 nM | 1 nM
7 | Cc1nn(C)cc1-n1c(=O)n(C)c2cnc3ccc(-c4cncc(OC5CCC5)c4)cc3c21 [Example 60.1, 8-(5-Cyclobutoxy-pyridin-3-yl)-1-(1,3-dimethyl-1H-pyrazol-4-yl)-3-methyl-1,3-dihydro-imidazo[4,5-c]quinolin-2-one] | 23 nM | 3 nM | < 5 nM | 1 nM
8 | CCn1cc(-n2c(=O)n(C)c3cnc4ccc(-c5cnc(N)c(Cl)c5)cc4c32)c(C)n1 [Example 148.3, 8-(6-Amino-5-chloro-pyridin-3-yl)-1-(1-ethyl-3-methyl-1H-pyrazol-4-yl)-3-methyl-1,3-dihydro-imidazo[4,5-c]quinolin-2-one] | 10 nM | 3 nM | < 5 nM | 1 nM
9 | CN(C)c1ccc(-c2ccc3ncc4c(c3c2)n(-c2cn(C)nc2Cl)c(=O)n4C)cn1 [Example 4.9, 1-(3-Chloro-1-methyl-1H-pyrazol-4-yl)-8-(6-dimethylamino-pyridin-3-yl)-3-methyl-1,3-dihydro-imidazo[4,5-c]quinolin-2-one] | 6 nM | 59 nM | 5 nM | 2 nM
10 | Cc1nn(C)cc1-n1c(=O)n(C)c2cnc3ccc(-c4ccc(-c5ncc[nH]5)cc4)cc3c21 [Example 77, 1-(1,3-Dimethyl-1H-pyrazol-4-yl)-8-[4-(1H-imidazol-2-yl)-phenyl]-3-methyl-1,3-dihydro-imidazo[4,5-c]quinolin-2-one] | 8 nM | 24 nM | 7 nM | 5 nM
11 | CNS(=O)(=O)c1cccc(-c2ccc3ncc4c(c3c2)n(-c2cn(C)nc2C)c(=O)n4C)c1 [Example 39, 3-[1-(1,3-Dimethyl-1H-pyrazol-4-yl)-3-methyl-2-oxo-2,3-dihydro-1H-imidazo[4,5-c]quinolin-8-yl]-N-methyl-benzenesulfonamide] | 64 nM | 13 nM | 35 nM | 37 nM

The next lines start with results.

Row | IC50 [2] | IC50 (PI3K beta) | IC50 [3] | SMILES | IC50 [1]
12 | 37 nM | 32 nM | 28 nM | [2H]C([2H])([2H])OCc1ncc(-c2ccc3ncc4c(c3c2)n(-c2cn(C)nc2C)c(=O)n4C)cc1OCC [Example 198, 1-(1,3-Dimethyl-1H-pyrazol-4-yl)-8-(5-ethoxy-6-trideuteromethoxymethyl-pyridin-3-yl)-3-methyl-1,3-dihydro-imidazo[4,5-c]quinolin-2-one] | 3 nM
13 | 88 nM | 56 nM | 38 nM | Cc1cc(-n2c(=O)n(C)c3cnc4ccc(-c5cnc(C)c(O)c5)cc4c32)n(C)n1 [Example 185.2, 1-(2,5-Dimethyl-2H-pyrazol-3-yl)-8-(5-hydroxy-6-methyl-pyridin-3-yl)-3-methyl-1,3-dihydro-imidazo[4,5-c]quinolin-2-one] | 32 nM
14 | 59 nM | 359 nM | 17 nM | COc1ncc(-c2ccc3ncc4c(c3c2)n(-c2cc(C)nn2C)c(=O)n4C)c(OC)n1 [Example 234.4, 8-(2,4-Dimethoxy-pyrimidin-5-yl)-1-(2,5-dimethyl-2H-pyrazol-3-yl)-3-methyl-1,3-dihydro-imidazo[4,5-c]quinolin-2-one] | 10.1 nM
15 | 119 nM | 81 nM | 40 nM | CCOCc1cc(-c2ccc3ncc4c(c3c2)n(-c2cn(C(C)C)nc2C)c(=O)n4C)cnc1N [Example 166.3, 8-(6-Amino-5-ethoxymethyl-pyridin-3-yl)-1-(1-isopropyl-3-methyl-1H-pyrazol-4-yl)-3-methyl-1,3-dihydro-imidazo[4,5-c]quinolin-2-one] | 5 nM
16 | 26 nM | 62 nM | 30 nM | CCn1cc(-n2c(=O)n(C)c3cnc4ccc(-c5ccc(OC)c(OC)c5)nc4c32)c(C)n1 [Example 254, 8-(3,4-Dimethoxy-phenyl)-1-(1-ethyl-3-methyl-1H-pyrazol-4-yl)-3-methyl-1,3-dihydro-1,3,5,9-tetraaza-cyclopenta[a]naphthalen-2-one] | 58 nM
17 | 6 nM | 79 nM | 7 nM | Cc1nn(C(C)C)cc1-n1c(=O)n(C)c2cnc3ccc(-c4cnc(Cl)c(N)c4)cc3c21 [Example 152.1, 8-(5-Amino-6-chloro-pyridin-3-yl)-1-(1-isopropyl-3-methyl-1H-pyrazol-4-yl)-3-methyl-1,3-dihydro-imidazo[4,5-c]quinolin-2-one] | 2 nM
18 | < 5 nM | 184 nM | < 5 nM | CNc1ccc(-c2ccc3ncc4c(c3c2)n(-c2cn(C(C)C)nc2C)c(=S)n4C)cn1 [Example 241, 1-(1-isopropyl-3-methyl-1H-pyrazol-4-yl)-3-methyl-8-(6-(methylamino)pyridin-3-yl)-1H-imidazo[4,5-c]quinoline-2(3H)-thione] | < 0.5 nM
19 | 370 nM | 395 nM | 268 nM | Cc1nn(C(C)C)cc1-n1c(=O)n(C)c2cnc3ccc(-c4cnc5c(c4)COC(=O)N5C)cc3c21 [Example 170, 1-(1-Isopropyl-3-methyl-1H-pyrazol-4-yl)-3-methyl-8-(1-methyl-2-oxo-1,4-dihydro-2H-pyrido[2,3-d][1,3]oxazin-6-yl)-1,3-dihydro-imidazo[4,5-c]quinolin-2-one] | 79 nM
20 | 11 nM | 10 nM | 5 nM | CCOCc1cc(-c2ccc3ncc4c(c3c2)n(-c2cn(C)nc2Cl)c(=O)n4C)cnc1N [Example 166.4, 8-(6-Amino-5-ethoxymethyl-pyridin-3-yl)-1-(3-chloro-1-methyl-1H-pyrazol-4-yl)-3-methyl-1,3-dihydro-imidazo[4,5-c]quinolin-2-one] | 1 nM
21 | 84 nM | 202 nM | 49 nM | Cc1cc(-n2c(=O)n(C)c3cnc4ccc(-c5cnc(F)c(N)c5)cc4c32)n(C)n1 [Example 149.3, 8-(5-Amino-6-fluoro-pyridin-3-yl)-1-(2,5-dimethyl-2H-pyrazol-3-yl)-3-methyl-1,3-dihydro-imidazo[4,5-c]quinolin-2-one] | 6.94 nM
22 | 113 nM | 79 nM | 123 nM | Cc1nn(C)c(C)c1-n1c(=O)n(C)c2cnc3ccc(-c4cnc(Cl)c(N)c4)cc3c21 [Example 152.3, 8-(5-Amino-6-chloro-pyridin-3-yl)-3-methyl-1-(1,3,5-trimethyl-1H-pyrazol-4-yl)-1,3-dihydro-imidazo[4,5-c]quinolin-2-one] | 20 nM
